Results reported in PMC7357027 (Biomolecules, 2020).
Entries after “also recorded” stand apart in the source; their conditions may differ. Where two headings read alike, the source gives them in different places.

Target: neuraminidase from Clostridium perfringens (Clostridium perfringens, UniProt A0A0H2YQR1)
Format: biochemical
Settings: for Type of Inhibition: Lineweaver-Burk plot

Sequence of neuraminidase from Clostridium perfringens (A0A0H2YQR1 42-694 limits assumed): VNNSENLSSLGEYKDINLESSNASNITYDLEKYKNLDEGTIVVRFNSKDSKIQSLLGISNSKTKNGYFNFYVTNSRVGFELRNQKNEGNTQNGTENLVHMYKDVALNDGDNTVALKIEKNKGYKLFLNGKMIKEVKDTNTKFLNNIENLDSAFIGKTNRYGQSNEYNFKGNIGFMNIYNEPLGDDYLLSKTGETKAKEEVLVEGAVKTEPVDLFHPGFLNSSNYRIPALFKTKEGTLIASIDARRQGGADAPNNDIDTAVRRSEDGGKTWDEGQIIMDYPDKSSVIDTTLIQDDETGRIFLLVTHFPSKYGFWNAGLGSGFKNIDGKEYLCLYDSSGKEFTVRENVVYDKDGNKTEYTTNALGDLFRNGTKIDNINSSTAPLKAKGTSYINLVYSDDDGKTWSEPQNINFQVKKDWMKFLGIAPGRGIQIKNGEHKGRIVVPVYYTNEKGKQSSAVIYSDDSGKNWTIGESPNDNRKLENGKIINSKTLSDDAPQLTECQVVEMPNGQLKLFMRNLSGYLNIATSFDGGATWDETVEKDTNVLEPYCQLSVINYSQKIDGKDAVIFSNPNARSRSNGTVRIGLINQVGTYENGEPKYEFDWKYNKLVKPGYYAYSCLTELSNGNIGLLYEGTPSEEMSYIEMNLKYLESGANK

SMILES	Type of Inhibition	Type of Inhibition (listed as Bakkenolide D (2))	Type of Inhibition (listed as 1,5-di-O-caffeoylquinic acid (3, 1,5-COQ))	reversibility of inhibition (remaining enzyme activity versus enzyme concentration at different inhibitor concentrations (Figure 2b))	Type of Inhibition (listed as 5-O-Caffeoylquinic acid (4, 5-COQ))
C=C1COC(=O)[C@]12C[C@@]1(C)C([C@@H](OC(=O)/C=C\SC)CC[C@@H]1C)[C@H]2OC(C)=O (stereo partly shown) [compound 2, Bakkenolide D]	non-competitive inhibition	non-competitive inhibitor; also recorded: Noncompetitive	–	–	–
O=C(/C=C/c1ccc(O)c(O)c1)O[C@@H]1C[C@](OC(=O)/C=C/c2ccc(O)c(O)c2)(C(=O)O)C[C@@H](O)[C@H]1O [compound 3, 1,5-di-O-Caffeoylquinic Acid]	competitive inhibitor	–	Competitive	reversible inhibitor	–
O=C(/C=C/c1ccc(O)c(O)c1)O[C@@H]1C[C@](O)(C(=O)O)C[C@@H](O)[C@H]1O [compound 4, 5-O-Caffeoylquinic Acid]	competitive inhibitor	–	–	–	Competitive
